Results taken from article PMC6749586, “Design, Synthesis, and Anticancer Effect Studies of Iridium(III) Polypyridyl Complexes against SGC-7901 Cells” (Molecules, 2019).

What was measured:
HeLa cells = test: MTT cytotoxicity assay, HeLa; type: cell-based, human; conditions: 48 h, read-out: IC50 toward HeLa
Text: (§1) The lung carcinoma cell line A549, the cervical cancer cell line HeLa, the esophageal cancer cell line Eca-109, and the human hepatocellular carcinoma cell line BEL-7402 were purchased from the cell bank of the Cell Institute of Sinica Academia Shanghai (Shanghai, China). The gastric adenocarcinoma cell line SGC-7901, the hepatocellular carcinoma cell line HepG2, and the mouse embryonic fibroblast cell line NIH 3T3 were obtained from the Experimental Animal Center of Sun Yat-Sen University (Guangzhou, China). The BEL-7402 and SGC-7901 cell lines were cultured in Roswell Park Memorial Institute Medium (RPMI-1640); and A549, Eca-109, HepG2, and NIH 3T3 cells were grown in Dulbecco’s Modified Eagle’s Medium (DMEM), including 10% fetal bovine serum (FBS), 100 units mL^−1 penicillin/streptomycin mixture, and 2.0 g/L of NaHCO3. Cell passage experiments were performed with trypsin every 2 days to maintain exponential growth. All cells were cultured until they reached logarithmic growth phase, unless specifically noted.
(§2) Cell cytotoxicity following treatment with the iridium(III) complexes was detected by MTT assay. The cells were seeded into 96-well micro-assay culture plates (1 × 10^4 cells per well) and grown overnight in a 5% CO2 incubator at 37 °C. Then, the cell lines were treated with gradient concentrations of the complexes 1–3. After treatment for 48 h, MTT solution (5 mg mL^−1, […]) dissolved in phosphate buffer was added to each well and the cells were further cultured for 4 h. Upon completion of incubation, the solvent was removed and 100 µL/well of buffer containing dimethylformamide (50%) and sodium dodecyl sulfate (20%) was added to dissolve the produced formazan. The absorbance of each well was measured with a microplate reader at a wavelength of 490 nm. The IC50 values were determined from the plots of viability versus concentration used to treat the cells. Three independent experiments were performed to obtain the mean values.

SGC-7901 cells [1] = test: Mitochondrial membrane potential assay with JC-1; type: cell-based, human; conditions: 24 h; for Ratio of red/green JC-1 fluorescence intensity (R), complex + NAC: 4.0 µM 1, 15.0 µM 2, 15.0 µM 3, in the presence of NAC; for Ratio of red/green JC-1 fluorescence intensity (R): substance alone: 4.0 µM 1, 15.0 µM 2, 15.0 µM 3, CCCP or NAC, control 12.03
Protocol: The SGC-7901 cells were seeded into a 12-well plate at a density of 1.5 × 10^5 cells per well and incubated to attach at 37 °C in 5% CO2. Overnight, the cells were treated with complexes 1–3 for 24 h. CCCP was used as a positive control. Then, the cells were incubated with JC-1 for 30 min at room temperature, after which the remaining dye was washed away with PBS. The samples were then observed under the ImageXpress Micro XLS system and flow cytometry was employed to quantify the fluorescence intensity.

SGC-7901 cells [2] = test: MTT cytotoxicity assay, SGC-7901; type: cell-based, human; conditions: 48 h; for IC50: read-out: IC50 toward SGC-7901
Text: as §1, §2

HepG2 cells = test: MTT cytotoxicity assay, HepG2; type: cell-based, human; conditions: 48 h, read-out: IC50 toward HepG2
Text: as §1, §2

SGC-7901 cells [3] = test: Intracellular ROS measurement with DCFH-DA; type: cell-based, human; conditions: 4.0 µM 1, 15.0 µM 2, 15.0 µM 3, Rosup positive control, 24 h, versus control
Protocol: 2,7-Dichloro-dihydrofluorescein diacetate (DCFH-DA) was used as a fluorescence probe to investigate the changes in intracellular ROS levels. SGC-7901 cells were placed in a 12-well plate at a density of 1.5 × 10^5 per well. After 24 h, the medium in the wells was replaced with a medium containing the corresponding concentration of 1–3, and the cells were incubated for 24 h. Finally, the cell pellets were suspended in PBS and imaged under the ImageXpress Micro XLS system (MD company, US). The DCF fluorescence intensity was calculated by flow cytometry.

NIH 3T3 cells = test: MTT cytotoxicity assay, normal NIH 3T3; type: cell-based, mouse; conditions: 48 h, read-out: IC50 toward NIH 3T3
Text: as §1, §2

A549 cells = test: MTT cytotoxicity assay, A549; type: cell-based, human; conditions: 48 h, read-out: IC50 toward A549
Text: as §1, §2

SGC-7901 cells [4] = test: Transwell cell invasion assay; type: cell-based, human; conditions: 4.0 µM 1, 15.0 µM 2, 15.0 µM 3, 24 h, Matrigel Transwell
Protocol: To analyze the efficacy of the iridium(III) complexes in preventing migration and offsetting the invasion potential of SGC-7901 cells, 24-well Transwell chambers coated with matrigel were used. The cells were trypsinized and re-suspended in serum-free RPMI-1640 at a density of 1.8 × 10^5 cells/mL. Then, 100 μL of the cell suspension and different concentrations of the complexes were placed in the top chambers of the Transwell plates, and 500 μL of RPMI-1640 containing 20% FBS was added to the lower chambers. After co-incubation for 24 h, non-invading cells in the top chambers of the Transwell plates were scraped away by cotton swabs, and invaded cells were fixed with paraformaldehyde for 15 min and stained with crystal violet solution (0.1%) for 20 min. The cells that invaded the underside of the Transwell plates were photographed with a microscope.

Eca-109 cells = test: MTT cytotoxicity assay, Eca-109; type: cell-based, human; conditions: 48 h, read-out: IC50 toward Eca-109
Text: The lung carcinoma cell line A549, the cervical cancer cell line HeLa, the esophageal cancer cell line Eca-109, and the human hepatocellular carcinoma cell line BEL-7402 were purchased from the cell bank of the Cell Institute of Sinica Academia Shanghai (Shanghai, China). The gastric adenocarcinoma cell line SGC-7901, the hepatocellular carcinoma cell line HepG2, and the mouse embryonic fibroblast cell line NIH 3T3 were obtained from the Experimental Animal Center of Sun Yat-Sen University (Guangzhou, China). […] Cell passage experiments were performed with trypsin every 2 days to maintain exponential growth. All cells were cultured until they reached logarithmic growth phase, unless specifically noted. Cell cytotoxicity following treatment with the iridium(III) complexes was detected by MTT assay. The cells were seeded into 96-well micro-assay culture plates (1 × 10^4 cells per well) and grown overnight in a 5% CO2 incubator at 37 °C. Then, the cell lines were treated with gradient concentrations of the complexes 1–3. After treatment for 48 h, MTT solution (5 mg mL^−1, […]) dissolved in phosphate buffer was added to each well and the cells were further cultured for 4 h. […] The absorbance of each well was measured with a microplate reader at a wavelength of 490 nm. The IC50 values were determined from the plots of viability versus concentration used to treat the cells. Three independent experiments were performed to obtain the mean values.

Row | Compound | IC50 (HeLa cells) | Ratio of red/green JC-1 fluorescence intensity (R), complex + NAC (SGC-7901 cells [1]) | Ratio of red/green JC-1 fluorescence intensity (R) (SGC-7901 cells [1]) | IC50 toward SGC-7901 (SGC-7901 cells [2]) | IC50 (SGC-7901 cells [2]) | IC50 (HepG2 cells) | Intracellular ROS level, DCF green fluorescence (imaging) (SGC-7901 cells [3]) | IC50 (NIH 3T3 cells) | IC50 (A549 cells) | Inhibitory percentage of cell invasion (SGC-7901 cells [4]) | IC50 (Eca-109 cells)
1 | F[P-](F)(F)(F)(F)F.O=[N+]([O-])c1cc2ccc[n+]3c2c2c1ccc[n+]2[Ir-5]312([c]3ccccc3-c3cccc[n+]31)[c]1ccccc1-c1cccc[n+]12 [Complex 1, [Ir(Hppy)2(NP)]PF6] | 16.3 ± 0.9 µM | 1.86 | 0.43 | the same cytotoxicity as cisplatin | 3.6 ± 0.1 µM | 30.9 ± 0.7 µM | increased green fluorescence intensity | 14.6 ± 1.3 µM | 14.3 ± 2.4 µM | 51.09% | 20.3 ± 0.9 µM
2 | F[P-](F)(F)(F)(F)F.Nc1c([N+](=O)[O-])c2cccnc2c2ncccc12.[Ir+3].[c-]1ccccc1-c1ccccn1.[c-]1ccccc1-c1ccccn1 [Complex 2, [Ir(Hppy)2(NAP)]PF6] | 52.6 ± 1.4 µM | 17.99 | 7.12 | – | 14.1 ± 0.5 µM | 99 ± 14.7 µM | increased green fluorescence intensity | 23 ± 1.5 µM | 80.6 ± 1.4 µM | 46.01% | 72.6 ± 5.3 µM
3 | F[P-](F)(F)(F)(F)F.Nc1c(N)c2cccnc2c2ncccc12.[Ir+3].[c-]1ccccc1-c1ccccn1.[c-]1ccccc1-c1ccccn1 [Complex 3, [Ir(Hppy)2(DAP)]PF6] | 59.7 ± 6.8 µM | – | 1.49 | – | 11.1 ± 1.3 µM | 95 ± 9.1 µM | increased green fluorescence intensity | > 100 µM | > 100 µM | 48.90% | 97.1 ± 0.2 µM
